Patent US10131652B2, “Pyrimidinyloxy benzene derivatives as herbicides” (E. I. DU PONT DE NEMOURS AND COMPANY, priority 2014, dated 2018)

Legend:
Assay in all cases: Test D pre-/postemergence plant response
Format in all cases: in vivo
[1] = system: johnsongrass (Sorghum halepense)
Excerpt: (§1) Seeds of plant species selected from blackgrass (Alopecurus myosuroides), Italian ryegrass (Lolium multiflorum), winter wheat (Triticum aestivum), galium (catchweed bedstraw, Galium aparine), corn (Zea mays), large (Lg) crabgrass (Digitaria sanguinalis), giant foxtail (Setaria faberii), johnsongrass (Sorghum halepense), lambsquarters (Chenopodium album), morningglory (Ipomoea coccinea), yellow nutsedge (Cyperus esculentus), pigweed (Amaranthus retroflexus), ragweed (common ragweed, Ambrosia elatior), soybean (Glycine max), bamyardgrass (Echinochloa crus-galli), oilseed rape (Brassica napus), waterhemp (common waterhemp, Amaranthus rudis), and velvetleaf (Abutilon theophrasti) were planted into a blend of loam soil and sand and treated preemergence with test chemicals formulated in a non-phytotoxic solvent mixture which included a surfactant. At the same time, plants selected from these crop and weed species and also kochia (Kochia scoparia), wild oat (Avena fatua), and chickweed (common chickweed, Stellaria media) were planted in pots containing Redi-Earth® planting medium (Scotts Company, 14111 Scottslawn Road, Marysville, Ohio 43041) comprising spaghnum peat moss, vermiculite, wetting agent and starter nutrients and treated with postemergence applications of test chemicals formulated in the same manner. Plants ranged in height from 2 to 18 cm (1- to 4-leaf stage) for postemergence treatments. Treated plants and controls were maintained in a greenhouse for 13 to 15 days, after which time all species were compared to controls and visually evaluated. Plant response ratings, summarized in Table D, are based on a scale of 0 to 100 where 0 is no effect and 100 is complete control. A dash (-) response means no test result.

[2] = system: lambsquarters (Chenopodium album)
Excerpt: as §1

[3] = system: ragweed (common ragweed, Ambrosia elatior)
Excerpt: as §1

[4] = system: yellow nutsedge (Cyperus esculentus)
Excerpt: as §1

[5] = system: large (Lg) crabgrass (Digitaria sanguinalis)
Excerpt: as §1

[6] = system: Italian ryegrass (Lolium multiflorum)
Excerpt: as §1

[7] = system: pigweed (Amaranthus retroflexus)
Excerpt: as §1

[8] = system: giant foxtail (Setaria faberii)
Excerpt: as §1

[9] = system: galium (catchweed bedstraw, Galium aparine)
Excerpt: as §1

[10] = system: oilseed rape (Brassica napus)
Excerpt: as §1

corn (Zea mays) = system: corn (Zea mays)
Excerpt: as §1

[11] = system: morningglory (Ipomoea coccinea)
Excerpt: as §1

[12] = system: barnyardgrass (Echinochloa crus-galli)
Excerpt: as §1

[13] = system: blackgrass (Alopecurus myosuroides)
Excerpt: as §1

[14] = system: winter wheat (Triticum aestivum)
Excerpt: as §1

soybean (Glycine max) = system: soybean (Glycine max)
Excerpt: as §1

[15] = system: waterhemp (common waterhemp, Amaranthus rudis)
Excerpt: as §1

[16] = system: velvetleaf (Abutilon theophrasti)
Excerpt: as §1

[17] = Postemergence, 16 g ai/ha, scale 0 to 100 (0 no effect, 100 complete control)
[18] = Postemergence, 31 g ai/ha, scale 0 to 100 (0 no effect, 100 complete control)
[19] = Postemergence, 62 g ai/ha, scale 0 to 100, 0 no effect, 100 complete control
[20] = Postemergence, 125 g ai/ha, scale 0 to 100, 0 no effect, 100 complete control
[21] = Preemergence, 16 g ai/ha, scale 0 to 100 (0 no effect, 100 complete control)
[22] = Preemergence, 31 g ai/ha, scale 0 to 100 (0 no effect, 100 complete control)
[23] = Preemergence, 62 g ai/ha, scale 0 to 100 (0 no effect, 100 complete control)

## FCc1cc(-c2c(F)cccc2Oc2ncc(Cl)cn2)no1 [Compound 57]
[1]; [17]
  Johnsongrass plant response rating: 0
[1]; [18]
  Johnsongrass plant response rating: 0
[1]; [19]
  Plant response rating, Johnsongrass: 5
[1]; [20]
  Plant response rating, Johnsongrass: 5
[1]; Preemergence, 125 g ai/ha
  Plant response rating (scale 0 to 100), Johnsongrass: 80
[1]; [21]
  Plant response rating, Johnsongrass: 0
[1]; [22]
  Plant response rating, Johnsongrass: 10
[1]; [23]
  Plant response rating, Johnsongrass: 40
[2]; [17]
  Lambsquarters plant response rating: 60
[2]; [18]
  Lambsquarters plant response rating: 40
[2]; [19]
  Plant response rating, Lambsquarters: 70
[2]; [20]
  Plant response rating, Lambsquarters: 80
[2]; Preemergence, 125 g ai/ha
  Plant response rating (scale 0 to 100), Lambsquarters: 100
[2]; [21]
  Plant response rating, Lambsquarters: 80
[2]; [22]
  Plant response rating, Lambsquarters: 100
[2]; [23]
  Plant response rating, Lambsquarters: 100
[3]; [17]
  Ragweed plant response rating: 20
[3]; [18]
  Ragweed plant response rating: 50
[3]; [19]
  Plant response rating, Ragweed: 60
[3]; [20]
  Plant response rating, Ragweed: 98
[3]; Preemergence, 125 g ai/ha
  Plant response rating (scale 0 to 100), Ragweed: 100
[3]; [21]
  Plant response rating, Ragweed: 25
[3]; [22]
  Plant response rating, Ragweed: 35
[3]; [23]
  Plant response rating, Ragweed: 100
[4]; [17]
  Nutsedge, Yellow plant response rating: 0
[4]; [18]
  Nutsedge, Yellow plant response rating: 5
[4]; [19]
  Plant response rating, Nutsedge, Yellow: 5
[4]; [20]
  Plant response rating, Nutsedge, Yellow: 5
[4]; Preemergence, 125 g ai/ha
  Plant response rating (scale 0 to 100), Nutsedge, Yellow: 20
[4]; [21]
  Plant response rating, Nutsedge, Yellow: 0
[4]; [22]
  Plant response rating, Nutsedge, Yellow: 10
[4]; [23]
  Plant response rating, Nutsedge, Yellow: 20
[5]; [17]
  Crabgrass, Large plant response rating: 5
[5]; [18]
  Crabgrass, Large plant response rating: 5
[5]; [19]
  Plant response rating, Crabgrass, Large: 10
[5]; [20]
  Plant response rating, Crabgrass, Large: 10
[5]; Preemergence, 125 g ai/ha
  Plant response rating (scale 0 to 100), Crabgrass, Large: 100
[5]; [21]
  Plant response rating, Crabgrass, Large: 75
[5]; [22]
  Plant response rating, Crabgrass, Large: 85
[5]; [23]
  Plant response rating, Crabgrass, Large: 100
[6]; [17]
  Ryegrass, Italian plant response rating: 0
[6]; [18]
  Ryegrass, Italian plant response rating: 0
[6]; [19]
  Plant response rating, Ryegrass, Italian: 0
[6]; [20]
  Plant response rating, Ryegrass, Italian: 0
[6]; Preemergence, 125 g ai/ha
  Plant response rating (scale 0 to 100), Ryegrass, Italian: 50
[6]; [21]
  Plant response rating, Ryegrass, Italian: 0
[6]; [22]
  Plant response rating, Ryegrass, Italian: 0
[6]; [23]
  Plant response rating, Ryegrass, Italian: 5
[7]; [17]
  Pigweed plant response rating: 30
[7]; [18]
  Pigweed plant response rating: 55
[7]; [19]
  Plant response rating, Pigweed: 55
[7]; [20]
  Plant response rating, Pigweed: 75
[7]; Preemergence, 125 g ai/ha
  Plant response rating (scale 0 to 100), Pigweed: 100
[7]; [21]
  Plant response rating, Pigweed: 75
[7]; [22]
  Plant response rating, Pigweed: 85
[7]; [23]
  Plant response rating, Pigweed: 100
[8]; [17]
  Foxtail, Giant plant response rating: 0
[8]; [18]
  Foxtail, Giant plant response rating: 10
[8]; [19]
  Plant response rating, Foxtail, Giant: 20
[8]; [20]
  Plant response rating, Foxtail, Giant: 20
[8]; Preemergence, 125 g ai/ha
  Plant response rating (scale 0 to 100), Foxtail, Giant: 100
[8]; [21]
  Plant response rating, Foxtail, Giant: 50
[8]; [22]
  Plant response rating, Foxtail, Giant: 90
[8]; [23]
  Plant response rating, Foxtail, Giant: 100
[9]; [17]
  Galium plant response rating: 40
[9]; [18]
  Galium plant response rating: 50
[9]; [19]
  Plant response rating, Galium: 65
[9]; [20]
  Plant response rating, Galium: 95
[9]; Preemergence, 125 g ai/ha
  Plant response rating (scale 0 to 100), Galium: 90
[9]; [21]
  Plant response rating, Galium: 80
[9]; [22]
  Plant response rating, Galium: 70
[9]; [23]
  Plant response rating, Galium: 90
[10]; [17]
  Oilseed Rape plant response rating: 30
[10]; [18]
  Oilseed Rape plant response rating: 55
[10]; [19]
  Plant response rating, Oilseed Rape: 75
[10]; [20]
  Plant response rating, Oilseed Rape: 90
[10]; Preemergence, 125 g ai/ha
  Plant response rating (scale 0 to 100), Oilseed Rape: 100
[10]; [21]
  Plant response rating, Oilseed Rape: 100
[10]; [22]
  Plant response rating, Oilseed Rape: 100
[10]; [23]
  Plant response rating, Oilseed Rape: 100
Corn (Zea mays); [17]
  Corn plant response rating: 0
Corn (Zea mays); [18]
  Corn plant response rating: 5
Corn (Zea mays); [19]
  Plant response rating, Corn: 5
Corn (Zea mays); [20]
  Plant response rating, Corn: 10
Corn (Zea mays); Preemergence, 125 g ai/ha
  Plant response rating (scale 0 to 100), Corn: 30
Corn (Zea mays); [21]
  Plant response rating, Corn: 0
Corn (Zea mays); [22]
  Plant response rating, Corn: 0
Corn (Zea mays); [23]
  Plant response rating, Corn: 5
[11]; [17]
  Morningglory plant response rating: 5
[11]; [18]
  Morningglory plant response rating: 45
[11]; [19]
  Plant response rating, Morningglory: 45
[11]; [20]
  Plant response rating, Morningglory: 65
[11]; Preemergence, 125 g ai/ha
  Plant response rating (scale 0 to 100), Morningglory: 45
[11]; [21]
  Plant response rating, Morningglory: 10
[11]; [22]
  Plant response rating, Morningglory: 20
[11]; [23]
  Plant response rating, Morningglory: 35
[12]; [17]
  Barnyardgrass plant response rating: 0
[12]; [18]
  Barnyardgrass plant response rating: 5
[12]; [19]
  Plant response rating, Barnyardgrass: 5
[12]; [20]
  Plant response rating, Barnyardgrass: 10
[12]; Preemergence, 62 g ai/ha
  Plant response rating (scale 0 to 100), Barnyardgrass: 75
[12]; Preemergence, 125 g ai/ha
  Plant response rating (scale 0 to 100), Barnyardgrass: 85
[12]; [21]
  Plant response rating, Barnyardgrass: 5
[12]; [22]
  Plant response rating, Barnyardgrass: 20
[13]; [17]
  Blackgrass plant response rating: 0
[13]; [18]
  Blackgrass plant response rating: 0
[13]; [19]
  Plant response rating, Blackgrass: 0
[13]; [20]
  Plant response rating, Blackgrass: 15
[13]; Preemergence, 125 g ai/ha
  Plant response rating (scale 0 to 100), Blackgrass: 60
[13]; [21]
  Plant response rating, Blackgrass: 5
[13]; [22]
  Plant response rating, Blackgrass: 5
[13]; [23]
  Plant response rating, Blackgrass: 50
[14]; [17]
  Wheat plant response rating: 0
[14]; [18]
  Wheat plant response rating: 5
[14]; [19]
  Plant response rating, Wheat: 15
[14]; [20]
  Plant response rating, Wheat: 20
[14]; Preemergence, 125 g ai/ha
  Plant response rating (scale 0 to 100), Wheat: 5
[14]; [21]
  Plant response rating, Wheat: 0
[14]; [22]
  Plant response rating, Wheat: 0
[14]; [23]
  Plant response rating, Wheat: 0
Soybean (Glycine max); [17]
  Soybean plant response rating: 40
Soybean (Glycine max); [18]
  Soybean plant response rating: 70
Soybean (Glycine max); [19]
  Plant response rating, Soybean: 85
Soybean (Glycine max); [20]
  Plant response rating, Soybean: 90
Soybean (Glycine max); Preemergence, 125 g ai/ha
  Plant response rating (scale 0 to 100), Soybean: 95
Soybean (Glycine max); [22]
  Plant response rating, Soybean: 65
Soybean (Glycine max); [23]
  Plant response rating, Soybean: 95
[15]; [17]
  Waterhemp plant response rating: 60
[15]; [18]
  Waterhemp plant response rating: 55
[15]; [19]
  Plant response rating, Waterhemp: 75
[15]; [20]
  Plant response rating, Waterhemp: 98
[15]; Preemergence, 125 g ai/ha
  Plant response rating (scale 0 to 100), Waterhemp: 100
[15]; [21]
  Plant response rating, Waterhemp: 100
[15]; [22]
  Plant response rating, Waterhemp: 90
[15]; [23]
  Plant response rating, Waterhemp: 100
[16]; [17]
  Velvetleaf plant response rating: 10
[16]; [18]
  Velvetleaf plant response rating: 50
[16]; [19]
  Plant response rating, Velvetleaf: 70
[16]; [20]
  Plant response rating, Velvetleaf: 80
[16]; Preemergence, 125 g ai/ha
  Plant response rating (scale 0 to 100), Velvetleaf: 100
[16]; [21]
  Plant response rating, Velvetleaf: 100
[16]; [22]
  Plant response rating, Velvetleaf: 100
[16]; [23]
  Plant response rating, Velvetleaf: 100
